With `Fc1ccc(N2CCNCC2)cc1`, the lipophilicity (logP) stood at 1.28.

For the compound `COc1ccccc1N1CCNCC1`, the logP stood at 1.67.

Consider `c1ccc(N2CCNCC2)cc1`, for which the logP stood at 1.1.

As to `c1ccc2c(N3CCNCC3)nsc2c1`, the logP amounted to 2.14.

`c1csc(N2CCNCC2)n1` displayed a logP of 0.61.

With `Fc1ccnc(N2CCNCC2)n1`, the logP was 0.97.

Turning to `c1cnc(N2CCNCC2)nc1`, the logP is 0.49.

Regarding `c1ccc(N2CCNCC2)nc1`, the logP amounted to 0.74.

In turn, `Clc1ccc(N2CCNCC2)cc1` displayed a logP of 2.01.

On to `Cc1ccccc1N1CCNCC1`, for which the logP stood at 2.14.

In turn, `Clc1ccccc1N1CCNCC1` displayed a logP of 2.13.

On to `c1ccc2nc(N3CCNCC3)ccc2c1`, for which the logP was found to be 2.04.

Compound `FC(F)(F)c1cccc(N2CCNCC2)c1` had a logP of 2.43.

In the case of `Clc1cccc(N2CCNCC2)c1`, the logP is 2.11.

The term logP denotes the decadic logarithm of the partition coefficient of the neutral form, usually between octanol and water. Read a high logP as a more lipophilic compound.

The values above are taken from the OPERA property sets (Mansouri et al. 2018).
